One data set has as its system batch farrowing sows. Briefly: Previous experiment of feeding batch farrowing sows with different doses at different times. The format is in vivo, pigs. The following applies: application dosage and oral administration time of clinical medicine and bovine superovulation. As to the method: In the disclosure, the administration dosage of 1-[bis(4-cyanophenyl)alkyl]-1,2,4-triazole is generally 10-50 μg/kg·BW administered in a single dose, preferably 12-30 μg/kg·BW administered in a single dose, further preferably 12-25 μg/kg·BW administered in a single dose, e.g., 13, 14, 15, 16, 17, 18, 19, 20, 21, 22, or 23 μg/kg·BW. Alternatively, it can be administered in two doses. As long as the total administration dosage of the two doses is within a range of 10-50 μg/kg·BW, the dosage of each administration is not particularly limited, for example, each administration dosage is generally within a range of 1-40 μg/kg·BW. In the case of two doses, the time interval between the two instances of administration is 8-30 hours, preferably 9-28 hours, more preferably 10-26 hours, further preferably 12-25 hours, 14-24 hours, etc. If the administration dosage is too high, it tends to affect the estrus and ovulation in animals and even cause ovarian cysts. The administration dosage of the disclosure is important.

The next data set deals with ICR female mice. The experiment in a line: Mouse batch farrowing with FTAI model: embryo implantation number, embryo spacing, number born alive. It is filed as in vivo. The following applies: for embryo spacing upon embryo implantation: compared with batch farrowing model group. As to the method:
6-8-week-old ICR female mice acclimatized to the laboratory mouse house environment and in a good condition were selected and divided into a batch farrowing with FTAI model group, a batch farrowing with FTAI+low-dose model group, and a batch farrowing with FTAI+high-dose model group, and 10IU PMSG was injected at 17:00 pm. At 6-8 hours after a single injection of PMSG to the batch farrowing with FTAI+low-dose model group and the batch farrowing with FTAI+high-dose model group, respectively, the groups were supplemented with a low dose of 1-[bis(4-cyanophenyl)methyl]-1,2,4-triazole (10 μg/kg·BW) and a high dose of 1-[bis(4-cyanophenyl)methyl]-1,2,4-triazole (50 μg/kg·BW), respectively, and at 46-48 hours after the injection of PMSG, the groups were then injected with prepared 10IU GnRH and then put into a breeding male mouse cage. At 7:00-9:00 the next morning, vaginal plugs were examined, and this day was recorded as day 1 (D1) of pregnancy. In the afternoon of day 5 (D5) of pregnancy, 0.4 ml of 1% Chicago blue-normal saline solution was injected into model mice at the caudal vein, and after 3 minutes of systemic circulation, the mice were sacrificed by means of cervical dislocation, the abdominal cavity was immediately cut open, and the abdominal aorta was cut for bleeding. Then, uteri and ovaries were removed with surgical ophthalmic scissors, immersed in physiological saline for washing, and then put into a 4% paraformaldehyde fixation solution for 5 minutes of morphological fixation. Blue dots on the uterus were recorded as embryo implantation sites, the number of implantation sites was counted, and patterns of embryo spacing in different groups were drawn.
For some of the mice treated above, no intermediate test was done, and after the mice gave birth, the number born alive in each group was counted.

The subject of data set [1] is Enpp2, Lpar3 and ptgs2 mRNA (LPA signalling pathway) in the uterus. Briefly: Quantitative PCR of key molecules in the LPA signalling pathway in mouse uteri. The following applies: mice, 10 μg/kg·BW. It is filed as in vivo.
Protocol: 6-8-week-old ICR female mice acclimatized to the laboratory mouse house environment and in a good condition were selected and divided into a batch farrowing with FTAI model group, a batch farrowing with FTAI+low-dose model group, and a batch farrowing with FTAI+high-dose model group, and 10IU PMSG was injected at 17:00 pm. […] At 7:00-9:00 the next morning, vaginal plugs were examined, and this day was recorded as day 1 (D1) of pregnancy. In the afternoon of day 5 (D5) of pregnancy, 0.4 ml of 1% Chicago blue-normal saline solution was injected into model mice at the caudal vein, and after 3 minutes of systemic circulation, the mice were sacrificed by means of cervical dislocation, the abdominal cavity was immediately cut open, and the abdominal aorta was cut for bleeding. […] Blue dots on the uterus were recorded as embryo implantation sites, the number of implantation sites was counted, and patterns of embryo spacing in different groups were drawn.
Unfixed uteri were isolated for RNA extraction, reverse transcription and quantitative PCR detection of several key target molecules in the LPA signalling pathway, i.e., detection of Enpp2 (a gene for the expression of ATX, the key enzyme of LPA synthesis), Lpar3 (LPA receptor gene), and ptgs2 (a key gene downstream of LPAR). […]
The test system of another data set is estradiol. The experiment in a line: Peripheral blood estradiol level in gilts after insemination by radioimmunoassay (Example 4). The format is in vivo, pigs. The following applies: once low-dose 12-20 μg/kg·BW, day 2-day 16 after mating. The protocol:
The breed of the gilts used in this experiment was Landrace x Large White binary sows, the gilts were randomly divided into the following 3 groups, and the treatment method for each group was as follows:
batch farrowing with FTAI: the gilts were fed with an altrenogest oral solution at 20 mg/gilt at the same time every day, for 18 days; PMSG at 1000 IU/gilt was injected intramuscularly 42 h after the last feeding with altrenogest, GnRH at 100 μg/gilt was injected intramuscularly after another 80 h, the first timed insemination was performed 24 h after the injection of GnRH, and the second timed insemination was performed after 24 h. […]
Peripheral blood was collected from the gilts in the batch farrowing with FTAI and the batch farrowing with FTAI with supplementing with a single low dose of 1-[bis(4-cyanophenyl)methyl]-1,2,4-triazole at different times after mating, i.e., days 2, 4, 10 12, and 16 after mating, blood was collected from the anterior vena cava of the gilts and centrifuged, the supernatant was taken, stored at −20° C., and then detected for estradiol level by radioimmunoassay.
The detection steps were as follows: 12×75 mm disposable tubes were arranged on a tube rack, and were a total radioactivity counting (tc) tube, a non-specific binding (NSB) tube, a zero standard (0) tube, standard tubes, and sample tubes, respectively. […]

Where [2] appears, read: low dose 10 μg/kg·BW, compared with batch farrowing with FTAI model group.

Entries after “also recorded” stand apart in the source; their conditions may differ.

Regarding `N#Cc1ccc(C(c2ccc(C#N)cc2)n2cncn2)cc1` [1-[bis(4-cyanophenyl)methyl]-1,2,4-triazole], in the data set with batch farrowing sows, the “problems caused in sows” value was “recessive estrus, ovarian cyst, anovulation, and pregnancy failure”. Also, the “embryo spacing upon embryo implantation” value with ICR female mice (high dose 50 μg/kg·BW) is on record as “no effect on increasing the embryo spacing; also recorded: could not alleviate the overcrowding of embryos”; in the data set with ICR female mice (low dose 10 μg/kg·BW), “increased embryo spacing; also recorded: increase the spacing between embryos”. Also, the number born alive result in the data set on ICR female mice (high dose 50 μg/kg·BW, compared with batch farrowing with FTAI model group) is on record as “reduced number born alive; also recorded: decreased number born alive”; in the data set with ICR female mice (setting [2]) it was “significantly increase the number born alive”. For the same molecule, the embryo implantation number result in the data set with ICR female mice (setting [2]) is recorded as “no significant effect; also recorded: no significant difference”. Also, the “Enpp2, Lpar3 and ptgs2 mRNA levels in the uteri” value is given as “significantly higher” in data set [1] (compared with batch farrowing with FTAI model group) and “no significant difference” in data set [1] (compared with natural estrus group). For the same molecule, the “blood estradiol (estrogen) level after mating” value with estradiol is “no obvious change; also recorded: no significant effect”.

Source of the values: patent US12678488B2, “Batch management method for improving farrowing rate or number of piglets born alive in swine” (priority 2024, dated 2026).
